In the supplement of paper PMC10307832 one finds relative viability data, which are given here for 7 cell lines.

Assay in all cases: relative viability (nuclei count vs DMSO), 5 days (fraction); higher = more cells survive
Compound in one experiment: CCOC(=O)CCNc1cc(N2CCc3ccccc3CC2)nc(-c2ccccn2)n1 [GSK-J4]
Put shortly: (§1)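 After an overnight hold at 37 °C, lung cancer cell lines in 1536-well plates were pinned with five library-drug doses (not always all listed), each √10 from the next, on vehicle-anchored plates. The cells stayed 5 days without fresh medium, then a one-step fix, permeabilisation and Hoechst stain preceded 4× imaging and MetaXpress nuclear counts. A plate passed only with control CV under 25% and at least one doubling. Viability is the median, over plates, of treated-well nuclei relative to vehicle-well nuclei.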

Compound in the next experiment: CN1CCC(CC1)OC2=CC(=C(C=C2)NC3=NC=C4C(=N3)N(C(=O)N4C)C5CCCC5)OC [AZ3146]
Put shortly:
as §1

Compound in the experiment “AZ3146 + Pemetrexed”: CN1CCC(CC1)OC2=CC(=C(C=C2)NC3=NC=C4C(=N3)N(C(=O)N4C)C5CCCC5)OC [AZ3146] + Nc1nc2[nH]cc(CCc3ccc(C(=O)N[C@@H](CCC(=O)O)C(=O)O)cc3)c2c(=O)[nH]1 [Pemetrexed] (partner 0.2 µM)
Put shortly:
(§2)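 Relative viability divides the nuclei count in treated wells by that in vehicle wells. Lung cancer cell lines were seeded in 1536-well plates, dosed by pin tool the next day, and fixed and stained after 5 days in one step with final 0.05% Triton X-100, 1% formaldehyde and 1 ug/ml Hoechst. Dosing was a single drug or a fixed anchor-drug dose plus five library-drug doses (not always all listed) in √10 steps, and values are medians of duplicate plates imaged at 4×.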

Compound in the experiment “GSK-J4 + Alpelisib”: CCOC(=O)CCNc1cc(N2CCc3ccccc3CC2)nc(-c2ccccn2)n1 [GSK-J4] + Cc1nc(NC(=O)N2CCC[C@H]2C(N)=O)sc1-c1ccnc(C(C)(C)C(F)(F)F)c1 [Alpelisib] (partner 2 µM)
A digest of the protocol:
as §2

For NCI-H2087, the relative viability with GSK-J4 (0.5 µM) stood at 0.96; with GSK-J4 (1.581 µM), 0.824; with GSK-J4 (5 µM) it was 0.82; with GSK-J4 (15.81 µM), 1.04; with GSK-J4 (50 µM), 0.856; with AZ3146 (0.08 µM), 0.877. Further, the relative viability with AZ3146 (0.253 µM) came out at 1.08; in the experiment with AZ3146 (0.8 µM), 1.03; in the experiment with AZ3146 (2.53 µM) it was 1.2; with AZ3146 (8 µM), 0.917; with AZ3146 + Pemetrexed (first compound 0.08 µM), 0.648; with AZ3146 + Pemetrexed (first compound 0.253 µM), 0.683. The relative viability with AZ3146 + Pemetrexed (first compound 0.8 µM) was found to be 0.684; with AZ3146 + Pemetrexed (first compound 2.53 µM), 0.67; with AZ3146 + Pemetrexed (first compound 8 µM), 0.661; with GSK-J4 + Alpelisib (first compound 0.5 µM), 0.988; with GSK-J4 + Alpelisib (first compound 1.581 µM), 1.17; with GSK-J4 + Alpelisib (first compound 15.81 µM) it was 0.933. Moreover, the relative viability in the experiment with GSK-J4 + Alpelisib (first compound 50 µM) turned out to be 0.745.
On to NCI-H2126, for which the relative viability with GSK-J4 (0.5 µM) was found to be 0.973; with GSK-J4 (1.581 µM) it was 0.944; with GSK-J4 (5 µM), 1.02; with GSK-J4 (15.81 µM) it was 0.906; in the experiment with GSK-J4 (50 µM), 0.83; with AZ3146 (0.08 µM) it was 0.972. The relative viability is 1 with AZ3146 (0.253 µM); 0.99 with AZ3146 (0.8 µM); 1.06 with AZ3146 (2.53 µM); 0.919 in the experiment with AZ3146 (8 µM); 0.613 with AZ3146 + Pemetrexed (first compound 0.08 µM); 0.662 with AZ3146 + Pemetrexed (first compound 0.253 µM). Further, the relative viability with AZ3146 + Pemetrexed (first compound 0.8 µM) amounted to 0.618; with AZ3146 + Pemetrexed (first compound 2.53 µM), 0.677; with AZ3146 + Pemetrexed (first compound 8 µM), 0.696; with GSK-J4 + Alpelisib (first compound 0.5 µM), 0.763; with GSK-J4 + Alpelisib (first compound 1.581 µM), 0.706; with GSK-J4 + Alpelisib (first compound 5 µM) it was 0.787. The relative viability with GSK-J4 + Alpelisib (first compound 15.81 µM) was determined as 0.741; in the experiment with GSK-J4 + Alpelisib (first compound 50 µM), 0.684.
As for NCI-H2170, the relative viability in the experiment with GSK-J4 (0.5 µM) turned out to be 1; with GSK-J4 (1.581 µM), 0.89; with GSK-J4 (5 µM), 0.893; in the experiment with GSK-J4 (15.81 µM), 0.916; with GSK-J4 (50 µM), 0.969; with AZ3146 (0.08 µM), 0.959. Besides, the relative viability with AZ3146 (0.253 µM) came out at 0.991; with AZ3146 (0.8 µM) it was 0.994; with AZ3146 (2.53 µM), 1.01; with AZ3146 (8 µM) it was 0.96; with AZ3146 + Pemetrexed (first compound 0.08 µM) it was 0.269; with AZ3146 + Pemetrexed (first compound 0.253 µM) it was 0.248. Moreover, the relative viability with AZ3146 + Pemetrexed (first compound 0.8 µM) was found to be 0.26; with AZ3146 + Pemetrexed (first compound 2.53 µM), 0.268; with AZ3146 + Pemetrexed (first compound 8 µM), 0.281; with GSK-J4 + Alpelisib (first compound 0.5 µM), 0.787; with GSK-J4 + Alpelisib (first compound 1.581 µM), 0.803; in the experiment with GSK-J4 + Alpelisib (first compound 5 µM) it was 0.878. Also, the relative viability amounted to 0.781 with GSK-J4 + Alpelisib (first compound 15.81 µM) and 0.713 in the experiment with GSK-J4 + Alpelisib (first compound 50 µM).
Take NCI-H2228: the relative viability with GSK-J4 (0.5 µM) was determined as 0.904; in the experiment with GSK-J4 (1.581 µM), 1.04; with GSK-J4 (5 µM) it was 1.15; with GSK-J4 (15.81 µM) it was 0.997; in the experiment with GSK-J4 (50 µM), 0.948; with AZ3146 (0.08 µM), 1.04. In addition, the relative viability with AZ3146 (0.253 µM) turned out to be 0.973; with AZ3146 (0.8 µM) it was 1.1; with AZ3146 (2.53 µM) it was 0.995; in the experiment with AZ3146 (8 µM), 0.933; with AZ3146 + Pemetrexed (first compound 0.08 µM), 0.297; with AZ3146 + Pemetrexed (first compound 0.253 µM), 0.325. The relative viability with AZ3146 + Pemetrexed (first compound 0.8 µM) stood at 0.333; in the experiment with AZ3146 + Pemetrexed (first compound 2.53 µM), 0.298; with AZ3146 + Pemetrexed (first compound 8 µM) it was 0.37; with GSK-J4 + Alpelisib (first compound 0.5 µM), 0.702; in the experiment with GSK-J4 + Alpelisib (first compound 1.581 µM), 0.653; with GSK-J4 + Alpelisib (first compound 5 µM) it was 0.933. For the same cell line, the relative viability is 0.566 with GSK-J4 + Alpelisib (first compound 15.81 µM) and 0.575 with GSK-J4 + Alpelisib (first compound 50 µM).
Take NCI-H2347: the relative viability with GSK-J4 (0.5 µM) was 0.984; in the experiment with GSK-J4 (1.581 µM) it was 0.879; with GSK-J4 (5 µM), 0.886; in the experiment with GSK-J4 (15.81 µM) it was 0.952; with GSK-J4 (50 µM), 0.849; in the experiment with AZ3146 (0.08 µM), 0.997. Further, the relative viability with AZ3146 (0.253 µM) came to 1.03; with AZ3146 (0.8 µM), 0.913; in the experiment with AZ3146 (2.53 µM) it was 1.1; with AZ3146 (8 µM), 1.07; in the experiment with AZ3146 + Pemetrexed (first compound 0.08 µM), 0.42; with AZ3146 + Pemetrexed (first compound 0.253 µM), 0.418. Further, the relative viability with AZ3146 + Pemetrexed (first compound 0.8 µM) was found to be 0.458; with AZ3146 + Pemetrexed (first compound 2.53 µM), 0.404; with AZ3146 + Pemetrexed (first compound 8 µM), 0.416; in the experiment with GSK-J4 + Alpelisib (first compound 0.5 µM) it was 1.02; with GSK-J4 + Alpelisib (first compound 1.581 µM), 0.659; with GSK-J4 + Alpelisib (first compound 5 µM) it was 0.933. The relative viability with GSK-J4 + Alpelisib (first compound 15.81 µM) was found to be 1.05; in the experiment with GSK-J4 + Alpelisib (first compound 50 µM), 0.722.
For NCI-H2405, the relative viability with GSK-J4 (0.5 µM) turned out to be 1.07; with GSK-J4 (1.581 µM), 0.945; in the experiment with GSK-J4 (15.81 µM), 0.943; in the experiment with GSK-J4 (50 µM), 0.987; in the experiment with AZ3146 (0.08 µM), 1.08; in the experiment with AZ3146 (0.253 µM), 0.87. In addition, the relative viability with AZ3146 (0.8 µM) is 0.999; with AZ3146 (2.53 µM), 1.12; in the experiment with AZ3146 (8 µM), 1.11; with AZ3146 + Pemetrexed (first compound 0.08 µM), 1.12; in the experiment with AZ3146 + Pemetrexed (first compound 0.253 µM) it was 1.06; in the experiment with AZ3146 + Pemetrexed (first compound 0.8 µM), 1.1. Moreover, the relative viability in the experiment with AZ3146 + Pemetrexed (first compound 2.53 µM) came to 1.11; in the experiment with AZ3146 + Pemetrexed (first compound 8 µM), 1.04; in the experiment with GSK-J4 + Alpelisib (first compound 0.5 µM), 0.814; in the experiment with GSK-J4 + Alpelisib (first compound 1.581 µM), 0.619; in the experiment with GSK-J4 + Alpelisib (first compound 15.81 µM) it was 0.897; with GSK-J4 + Alpelisib (first compound 50 µM) it was 0.935.
Regarding NCI-H3122, the relative viability in the experiment with GSK-J4 (0.5 µM) was found to be 0.941; with GSK-J4 (1.581 µM), 0.904; with GSK-J4 (5 µM) it was 0.955; with GSK-J4 (15.81 µM), 1.05; in the experiment with GSK-J4 (50 µM), 1.02; in the experiment with AZ3146 (0.08 µM), 0.979. Further, the relative viability in the experiment with AZ3146 (0.253 µM) is 1; in the experiment with AZ3146 (0.8 µM), 1.02; with AZ3146 (2.53 µM), 0.984; with AZ3146 (8 µM) it was 0.991; in the experiment with AZ3146 + Pemetrexed (first compound 0.08 µM), 0.197; in the experiment with AZ3146 + Pemetrexed (first compound 0.253 µM) it was 0.191. Besides, the relative viability with AZ3146 + Pemetrexed (first compound 0.8 µM) was found to be 0.203; with AZ3146 + Pemetrexed (first compound 2.53 µM) it was 0.2; in the experiment with AZ3146 + Pemetrexed (first compound 8 µM), 0.185; with GSK-J4 + Alpelisib (first compound 0.5 µM) it was 0.78; in the experiment with GSK-J4 + Alpelisib (first compound 1.581 µM), 0.634; in the experiment with GSK-J4 + Alpelisib (first compound 5 µM), 0.95. The results for the relative viability with GSK-J4 + Alpelisib (first compound 15.81 µM) and with GSK-J4 + Alpelisib (first compound 50 µM) were 0.716 and 0.674, respectively.
